This is an account of results in ChEMBL document CHEMBL1146834, “1-Azakenpaullone is a selective inhibitor of glycogen synthase kinase-3 beta” (Bioorg Med Chem Lett, 2004).

The species entered for assay [1] is Homo sapiens. As to the kind of experiment: Relative inhibition of human CDK-1 and GSK3-beta.
Assay [2] concerns the target Cyclin-dependent kinase 5/CDK5 activator 1 (Homo sapiens, UniProt Q00535). As to the kind of experiment: Inhibition of human Cyclin-dependent kinase 5-p35nck5a. The class given is protein-complex assay.
Assay [3] has as its target Cyclin-dependent kinase 1/cyclin B (Homo sapiens, UniProt P06493). As to the kind of experiment: Inhibition of human cyclin-dependent kinase 1-cyclin B. The class given is protein-complex assay.
For assay [4], the target named is Glycogen synthase kinase-3 beta (Homo sapiens, UniProt P49841).
Glycogen synthase kinase-3 beta, sequence (P49841 whole entry): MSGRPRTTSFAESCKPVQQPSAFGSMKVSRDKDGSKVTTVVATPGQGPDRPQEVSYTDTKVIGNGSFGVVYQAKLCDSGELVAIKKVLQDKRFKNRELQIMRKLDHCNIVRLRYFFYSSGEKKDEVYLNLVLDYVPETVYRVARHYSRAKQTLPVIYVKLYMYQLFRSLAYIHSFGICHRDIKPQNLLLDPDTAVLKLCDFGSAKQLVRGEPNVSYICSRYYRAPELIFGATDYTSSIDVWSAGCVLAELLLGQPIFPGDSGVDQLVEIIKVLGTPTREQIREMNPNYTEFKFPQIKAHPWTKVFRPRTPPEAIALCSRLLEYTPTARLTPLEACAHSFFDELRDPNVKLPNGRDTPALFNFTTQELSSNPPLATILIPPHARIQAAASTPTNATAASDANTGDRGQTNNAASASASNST
Description: Inhibition of human glycogen synthase kinase-3 beta

Cyclin-dependent kinase 5/CDK5 activator 1, sequence (Q00535 whole entry): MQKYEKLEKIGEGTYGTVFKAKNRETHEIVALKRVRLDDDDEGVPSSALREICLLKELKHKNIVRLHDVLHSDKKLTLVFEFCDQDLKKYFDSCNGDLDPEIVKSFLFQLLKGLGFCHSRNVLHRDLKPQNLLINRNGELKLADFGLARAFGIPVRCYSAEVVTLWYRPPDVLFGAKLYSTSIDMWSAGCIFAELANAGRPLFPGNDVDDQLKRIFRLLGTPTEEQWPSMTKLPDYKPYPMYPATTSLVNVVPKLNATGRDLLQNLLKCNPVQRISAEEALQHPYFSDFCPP
Cyclin-dependent kinase 5/CDK5 activator 1, sequence (Q15078 whole entry, further chain): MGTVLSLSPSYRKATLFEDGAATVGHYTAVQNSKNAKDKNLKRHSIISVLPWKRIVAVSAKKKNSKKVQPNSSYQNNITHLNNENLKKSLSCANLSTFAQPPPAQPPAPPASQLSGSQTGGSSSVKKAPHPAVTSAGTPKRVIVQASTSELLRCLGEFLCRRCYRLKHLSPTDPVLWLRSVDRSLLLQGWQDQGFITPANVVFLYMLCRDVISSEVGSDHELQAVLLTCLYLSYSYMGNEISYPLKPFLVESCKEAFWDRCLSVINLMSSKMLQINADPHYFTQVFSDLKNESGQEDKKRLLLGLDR

In general, IC50 refers to the point on the concentration scale where inhibition reaches its midpoint. For the compound `O=C1Cc2c([nH]c3ccc(Br)cc23)-c2cccnc2N1`, the Selectivity index in assay [1] amounted to 1.4. The figures for the IC50 in assay [2], in assay [3] and in assay [4] were 12 µM, 8.4 µM and 6 µM, respectively.

As for `O=Nc1c(-c2c(O)[nH]c3ccc(I)cc23)[nH]c2ccccc12`, the IC50 is 0.02 µM in assay [2] and 0.025 µM in assay [3].

In assay [3], `O=C1Cc2c([nH]c3ccc(Br)cc23)-c2ncccc2N1` [AZAKENPAULLONE] registered an IC50 of 2 µM.

Take `NC1=NC(=O)/C(=C2\CCNC(=O)c3[nH]c(Br)cc32)N1` [HYMENIALDISINE]: the IC50 in assay [2] stood at 0.028 µM; in assay [3], 0.022 µM.

Compound `CC(C)c1c(-c2ccc(Cl)cc2)[nH]c2nccnc12` gave a Selectivity index in assay [1] of 1.1.
